In patent US20260021061A1, “ARIADNE AND ANALOGS FOR THE TREATMENT OF NEUROLOGICAL AND NEUROMUSCLAR DISORDERS” (priority 2022, published 2026):

Tests used:
[1] = target: 5-HT1F receptor (Homo sapiens, UniProt P30939); test: 5-HTome G protein activation BRET assay
Description: (§3) All BRET assays were conducted using BRET2 in HEK293T cells (ATCC CRL-11268; mycoplasma-free), which were subcultured in high-glucose DMEM (VWR) supplemented with 10% FBS (Life Technologies).
Constructs in G protein-dissociation BRET assays were derived from the codon-optimized Tango pcDNA3.1 library (Addgene) with V2tail/TEV/tTA encoding regions deleted to yield “de-Tango” constructs. […] All Gα-Rluc8, Beta, and GFP2-γ constructs were derived from the TRUPATH pcDNA5/FRT/TO library (Addgene). […]
On the day of the assay, plates were decanted and 20 uL of drug buffer per well (1×HBSS, 20 mM HEPES, pH 7.4) was added using a Multidrop (ThermoFisher Scientific), and plates were allowed to equilibrate at 37° C. in a humidified incubator before receiving drug stimulation. […] Before reading, addition of coelenterazine 400a (5 uM final concentration; Nanolight Technology) was performed by the [sequence]. Immediately after, plates were read at 400 nm Rluc and fluorescent GFP2 emission at 510 nm for BRET2 at 0.8 second per well using a PheraStarFSX (BMB Lab Tech).
The BRET ratios of 510/400 luminescence were calculated per well and were plotted as a function of drug concentration using Graphpad Prism 5 or 9 (Graphpad Software Inc., San Diego, CA). […]

[2] = target: T1, 5-HT2C receptor (Homo sapiens, UniProt P28335); test: G protein (Gq) dissociation BRET assay; settings: for Emax: read-out: Emax, agonist activity
T1 sequence (P28335 33-458): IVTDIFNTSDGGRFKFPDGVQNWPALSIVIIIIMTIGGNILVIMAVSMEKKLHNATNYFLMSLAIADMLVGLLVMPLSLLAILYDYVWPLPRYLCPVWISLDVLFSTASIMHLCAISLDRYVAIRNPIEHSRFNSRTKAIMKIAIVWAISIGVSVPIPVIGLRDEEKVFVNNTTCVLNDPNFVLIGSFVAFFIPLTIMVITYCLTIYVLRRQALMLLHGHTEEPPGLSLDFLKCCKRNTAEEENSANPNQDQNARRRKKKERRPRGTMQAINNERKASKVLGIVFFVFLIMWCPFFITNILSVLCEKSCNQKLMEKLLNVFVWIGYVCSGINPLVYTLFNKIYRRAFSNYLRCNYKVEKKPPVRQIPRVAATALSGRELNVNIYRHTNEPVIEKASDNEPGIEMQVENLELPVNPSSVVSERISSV
Description: as §3
(§4) Constructs in G protein-dissociation BRET assays were derived from the codon-optimized Tango pcDNA3.1 library (Addgene) with V2tail/TEV/tTA encoding regions deleted to yield “de-Tango” constructs. […] All Gα-Rluc8, Beta, and GFP2-γ constructs were derived from the TRUPATH pcDNA5/FRT/TO library (Addgene).
(§5) Approximately 48 hours before assays, cells were transfected using a reverse transfection method and plated in 1% dFBS at an approximate density of 15,000 cells per well into poly-L-lysine-coated 384-well white assay plates (Grenier Bio-One). For G protein-dissociation assays, cells were transfected in a 1:1:1:1 ratio of receptor: Gα-Rluc8: Beta: GFP2-γ constructs. […] All transfections were prepared in Opti-MEM (Invitrogen) and used a 3:1 ratio of TransIT-2020 (Mirus) uL:ug total DNA.
(§6) On the day of the assay, plates were decanted and 20 uL of drug buffer per well (1×HBSS, 20 mM HEPES, pH 7.4) was added using a Multidrop (ThermoFisher Scientific), and plates were allowed to equilibrate at 37° C. in a humidified incubator before receiving drug stimulation. Drug dilutions of all compounds were performed in McCorvy buffer (1×HBSS, 20 mM HEPES, pH 7.4, supplemented with 0.3% BSA fatty acid free (GoldBio), and 0.03% ascorbic acid). […] Next, plates were incubated at 37° C. in a humidified incubator for 60 minutes or specified time point. Before reading, addition of coelenterazine 400a (5 uM final concentration; Nanolight Technology) was performed by the [sequence]. Immediately after, plates were read at 400 nm Rluc and fluorescent GFP2 emission at 510 nm for BRET2 at 0.8 second per well using a PheraStarFSX (BMB Lab Tech).
(§7) The BRET ratios of 510/400 luminescence were calculated per well and were plotted as a function of drug concentration using Graphpad Prism 5 or 9 (Graphpad Software Inc., San Diego, CA). Data were normalized to % positive control stimulation and analyzed using nonlinear regression “log(agonist) vs. response” to yield Emax and EC50 parameter estimates.

[3] = target: 5-HT5a receptor (Homo sapiens, UniProt P47898); test: 5-HTome G protein activation BRET assay; settings: for agonist activity: 5-HTome screen
Description: as §3, §4, §5
(§8) On the day of the assay, plates were decanted and 20 uL of drug buffer per well (1×HBSS, 20 mM HEPES, pH 7.4) was added using a Multidrop (ThermoFisher Scientific), and plates were allowed to equilibrate at 37° C. in a humidified incubator before receiving drug stimulation. Drug dilutions of all compounds were performed in McCorvy buffer (1×HBSS, 20 mM HEPES, pH 7.4, supplemented with 0.3% BSA fatty acid free (GoldBio), and 0.03% ascorbic acid). […] Before reading, addition of coelenterazine 400a (5 uM final concentration; Nanolight Technology) was performed by the [sequence]. Immediately after, plates were read at 400 nm Rluc and fluorescent GFP2 emission at 510 nm for BRET2 at 0.8 second per well using a PheraStarFSX (BMB Lab Tech).
as §7

[4] = target: 5-HT1E receptor (Homo sapiens, UniProt P28566); test: 5-HTome G protein activation BRET assay
Description: as §3, §4, §5, §8, §7

[5] = test system: C57BL/6J mice; test: Open field locomotion in mice; format: in vivo, mouse
[6] = target: 5-HT2B (Homo sapiens, UniProt P41595); test: G protein (Gq) dissociation BRET assay; settings: for Emax: read-out: Emax, agonist activity
Description: as §3, §4, §5, §6, §7

[7] = target: T2, Cyclooxygenase COX-1 (Homo sapiens, UniProt P23219); test: SafetyScreen44 116030; format: biochemical; settings: 10 μM; Arachidonic acid; recombinant
T2 construct: Eurofins-Panlabs (contract screen) 116030
Description: (§1) A broad screen of 44 molecular targets (SafetyScreen44, Eurofins-Panlabs) for Ariadne were performed, which includes G protein-coupled receptors, steroid nuclear receptors, ion channels, neurotransmitter transporters, and metabolic and signaling enzymes. Only two molecular targets, 5-HT2A and 5-HT2B receptors, emerged above the positive hit threshold, defined as 50% displacement of standard radioligands by 10 uM concentration of Ariadne (FIG. 1b, and Table 1).
(§2) For species, “H”=human, “R”=rat. Test compound screened at all targets at concentration of 10 μM.

[8] = test system: Sodium Channel, Site 2; test: SafetyScreen44 279510; format: binding, human; settings: 10 μM; [3H]Batrachotoxinin; recombinant
Description: as §1, §2

[9] = test system: Glutamate, NMDA, Agonism; test: SafetyScreen44 232810; format: binding, rat; settings: 10 μM; [3H]CGP-39653; cerebral cortex
Description: as §1, §2

[10] = target: T3, Histamine H2 (Homo sapiens, UniProt P25021); test: SafetyScreen44 239710; format: binding; settings: 10 μM; [125I]Aminopotentidine; recombinant
T3 construct: purchased Eurofins-Panlabs (contract screen SafetyScreen44) assay ID 239710
Description: as §1, §2

[11] = target: T4, Cannabinoid CB1 (Homo sapiens, UniProt P21554); test: SafetyScreen44 217050; format: binding; settings: 10 μM; [3H]SR141716A; recombinant
T4 construct: Eurofins-Panlabs (contract screen) 217050
Description: as §1, §2

[12] = target: T5, Muscarinic M3 (Homo sapiens, UniProt P20309); test: SafetyScreen44 252810; format: binding; settings: 10 μM; [3H]N-Methylscopolamine; recombinant
T5 construct: purchased Eurofins-Panlabs (contract screen SafetyScreen44) assay ID 252810
Description: as §1, §2

[13] = target: T6, Adrenergic β2 (Homo sapiens, UniProt P07550); test: SafetyScreen44 204110; format: binding; settings: 10 μM; [3H]CGP-12177; recombinant
T6 construct: Eurofins-Panlabs (contract screen) 204110
Description: as §1, §2

[14] = test system: Calcium Channel L-Type, Dihydropyridine; test: SafetyScreen44 214600; format: binding, rat; settings: 10 μM; [3H]Nitrendipine; cerebral cortex
Description: as §1, §2

[15] = target: T7, Nicotinic Acetylcholine alpha4beta2, Cytisine (Homo sapiens, UniProt P17787+P43681); test: SafetyScreen44 299031; format: binding; settings: 10 μM; [3H]Cytisine; recombinant
T7 construct: purchased Eurofins-Panlabs (contract screen SafetyScreen44) assay ID 299031
Description: as §1, §2

[16] = target: T8, Endothelin ETA (Homo sapiens, UniProt P25101); test: SafetyScreen44 224010; format: binding; settings: 10 μM; [125I]Endothelin-1; recombinant
T8 construct: Eurofins-Panlabs (contract screen) 224010
Description: as §1, §2

[17] = target: T9, Protein Tyrosine Kinase, LCK (Homo sapiens, UniProt P06239); test: SafetyScreen44 176020; format: biochemical; settings: 10 μM; Poly(Glu:Tyr); recombinant
T9 construct: Eurofins-Panlabs (contract screen) 176020
Description: as §1, §2

[18] = target: T10, Phosphodiesterase PDE3A (Homo sapiens, UniProt Q14432); test: SafetyScreen44 152300; format: biochemical; settings: 10 μM; FAM-cAMP; recombinant
T10 construct: Eurofins-Panlabs (contract screen) 152300
Description: as §1, §2

[19] = target: T11, Serotonin (5-Hydroxytryptamine) 5-HT2A (Homo sapiens, UniProt P28223); test: SafetyScreen44 271650; format: binding; settings: 10 μM, [3H]Ketanserin, recombinant
T11 construct: purchased Eurofins-Panlabs (contract screen SafetyScreen44) assay ID 271650
Description: as §1, §2

[20] = target: T12, Monoamine Oxidase MAO-A (Homo sapiens, UniProt P21397); test: SafetyScreen44 140010; format: biochemical; settings: 10 μM; Kynuramine; recombinant
T12 construct: Eurofins-Panlabs (contract screen) 140010
Description: as §1, §2

[21] = target: T13, Serotonin (5-Hydroxytryptamine) 5-HT1A (Homo sapiens, UniProt P08908); test: SafetyScreen44 271110; format: binding; settings: 10 μM; [3H]8-OH-DPAT; recombinant
T13 construct: purchased Eurofins-Panlabs (contract screen SafetyScreen44) assay ID 271110
Description: as §1, §2

[22] = target: T14, Cyclooxygenase COX-2 (Homo sapiens, UniProt P35354); test: SafetyScreen44 118030; format: biochemical; settings: 10 μM; Arachidonic acid; recombinant
T14 construct: Eurofins-Panlabs (contract screen) 118030
Description: as §1, §2

[23] = EC50, Gq dissociation, Gq dissociation BRET
[24] = EC50, agonist activity, 5-HTome screen

5-HT5a receptor, sequence (P47898 whole entry): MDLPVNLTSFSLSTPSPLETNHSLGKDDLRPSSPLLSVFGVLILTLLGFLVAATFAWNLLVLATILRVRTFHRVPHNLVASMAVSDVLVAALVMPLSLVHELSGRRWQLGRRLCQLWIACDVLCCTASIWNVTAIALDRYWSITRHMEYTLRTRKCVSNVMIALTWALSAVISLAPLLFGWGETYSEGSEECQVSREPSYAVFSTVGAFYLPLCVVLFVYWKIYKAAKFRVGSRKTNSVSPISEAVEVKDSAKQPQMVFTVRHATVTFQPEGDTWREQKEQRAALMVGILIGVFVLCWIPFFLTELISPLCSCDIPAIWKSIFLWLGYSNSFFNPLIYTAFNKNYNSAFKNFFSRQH
5-HT2B, sequence (P41595 whole entry): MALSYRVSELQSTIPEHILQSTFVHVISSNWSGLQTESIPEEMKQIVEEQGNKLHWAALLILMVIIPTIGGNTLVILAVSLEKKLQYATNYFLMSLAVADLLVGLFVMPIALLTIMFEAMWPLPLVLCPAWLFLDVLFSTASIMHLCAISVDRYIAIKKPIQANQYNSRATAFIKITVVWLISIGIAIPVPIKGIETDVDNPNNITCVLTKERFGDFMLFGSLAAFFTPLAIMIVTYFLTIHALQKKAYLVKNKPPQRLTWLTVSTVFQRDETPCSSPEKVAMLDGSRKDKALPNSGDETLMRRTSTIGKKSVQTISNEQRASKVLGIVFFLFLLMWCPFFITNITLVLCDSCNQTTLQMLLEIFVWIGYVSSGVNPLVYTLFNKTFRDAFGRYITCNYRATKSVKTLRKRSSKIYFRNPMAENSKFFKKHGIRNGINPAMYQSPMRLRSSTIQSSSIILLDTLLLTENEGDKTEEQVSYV
5-HT1E receptor, sequence (P28566 whole entry): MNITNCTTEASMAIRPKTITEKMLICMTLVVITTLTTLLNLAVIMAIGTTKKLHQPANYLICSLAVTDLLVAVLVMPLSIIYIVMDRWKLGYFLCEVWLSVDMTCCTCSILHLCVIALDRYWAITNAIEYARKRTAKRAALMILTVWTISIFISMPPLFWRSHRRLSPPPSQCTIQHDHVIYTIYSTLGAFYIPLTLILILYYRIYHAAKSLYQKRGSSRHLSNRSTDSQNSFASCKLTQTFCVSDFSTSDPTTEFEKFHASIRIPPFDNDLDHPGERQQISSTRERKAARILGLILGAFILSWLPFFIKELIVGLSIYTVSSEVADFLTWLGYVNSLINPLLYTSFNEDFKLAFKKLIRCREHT
T11 sequence (P28223 whole entry): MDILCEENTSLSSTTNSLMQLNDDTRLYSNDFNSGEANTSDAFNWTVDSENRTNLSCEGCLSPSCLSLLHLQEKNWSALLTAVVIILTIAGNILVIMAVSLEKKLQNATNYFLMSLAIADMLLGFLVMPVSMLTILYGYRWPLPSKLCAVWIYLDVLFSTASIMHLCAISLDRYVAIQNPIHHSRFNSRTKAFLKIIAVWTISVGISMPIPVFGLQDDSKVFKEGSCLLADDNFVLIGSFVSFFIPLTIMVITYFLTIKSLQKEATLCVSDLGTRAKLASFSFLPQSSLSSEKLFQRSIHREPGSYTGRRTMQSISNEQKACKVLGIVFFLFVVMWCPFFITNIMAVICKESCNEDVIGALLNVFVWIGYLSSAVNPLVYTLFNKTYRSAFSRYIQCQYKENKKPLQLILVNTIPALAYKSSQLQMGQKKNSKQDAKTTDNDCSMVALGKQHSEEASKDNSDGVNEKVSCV
5-HT1F receptor, sequence (P30939 whole entry): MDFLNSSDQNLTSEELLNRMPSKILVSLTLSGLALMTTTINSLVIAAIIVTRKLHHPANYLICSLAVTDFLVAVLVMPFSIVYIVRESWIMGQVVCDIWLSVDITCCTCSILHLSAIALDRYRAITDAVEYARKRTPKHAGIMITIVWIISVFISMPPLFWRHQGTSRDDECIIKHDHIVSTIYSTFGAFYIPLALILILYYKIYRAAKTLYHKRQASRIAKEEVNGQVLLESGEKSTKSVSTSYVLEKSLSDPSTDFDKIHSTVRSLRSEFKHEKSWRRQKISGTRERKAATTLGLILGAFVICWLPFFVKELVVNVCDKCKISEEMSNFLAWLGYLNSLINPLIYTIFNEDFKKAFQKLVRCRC
T8 sequence (P25101 21-427): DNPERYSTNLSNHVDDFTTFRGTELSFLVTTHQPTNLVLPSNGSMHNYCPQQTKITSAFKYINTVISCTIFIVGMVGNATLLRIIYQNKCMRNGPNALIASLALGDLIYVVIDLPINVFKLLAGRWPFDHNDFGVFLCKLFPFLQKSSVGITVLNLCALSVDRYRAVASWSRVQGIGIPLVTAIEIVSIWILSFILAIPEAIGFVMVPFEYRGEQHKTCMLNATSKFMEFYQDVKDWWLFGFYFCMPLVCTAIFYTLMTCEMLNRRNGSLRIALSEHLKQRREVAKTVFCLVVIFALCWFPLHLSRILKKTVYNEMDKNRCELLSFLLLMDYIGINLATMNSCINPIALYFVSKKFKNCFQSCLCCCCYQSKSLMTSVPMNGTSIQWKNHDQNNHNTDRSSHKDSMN
T9 sequence (P06239 whole entry): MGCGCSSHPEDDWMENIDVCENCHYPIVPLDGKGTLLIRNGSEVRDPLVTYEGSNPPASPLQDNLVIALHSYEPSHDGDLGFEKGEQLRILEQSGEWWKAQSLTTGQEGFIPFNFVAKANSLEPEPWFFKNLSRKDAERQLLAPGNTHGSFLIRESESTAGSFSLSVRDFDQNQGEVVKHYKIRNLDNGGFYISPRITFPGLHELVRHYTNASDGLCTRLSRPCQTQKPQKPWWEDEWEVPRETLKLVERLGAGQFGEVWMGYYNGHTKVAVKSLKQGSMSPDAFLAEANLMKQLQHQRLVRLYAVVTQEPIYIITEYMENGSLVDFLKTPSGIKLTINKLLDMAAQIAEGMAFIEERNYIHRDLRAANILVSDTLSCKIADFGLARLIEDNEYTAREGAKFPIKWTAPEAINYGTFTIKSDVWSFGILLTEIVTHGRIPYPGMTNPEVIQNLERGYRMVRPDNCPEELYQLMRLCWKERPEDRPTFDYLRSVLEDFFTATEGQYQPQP
T3 sequence (P25021 whole entry): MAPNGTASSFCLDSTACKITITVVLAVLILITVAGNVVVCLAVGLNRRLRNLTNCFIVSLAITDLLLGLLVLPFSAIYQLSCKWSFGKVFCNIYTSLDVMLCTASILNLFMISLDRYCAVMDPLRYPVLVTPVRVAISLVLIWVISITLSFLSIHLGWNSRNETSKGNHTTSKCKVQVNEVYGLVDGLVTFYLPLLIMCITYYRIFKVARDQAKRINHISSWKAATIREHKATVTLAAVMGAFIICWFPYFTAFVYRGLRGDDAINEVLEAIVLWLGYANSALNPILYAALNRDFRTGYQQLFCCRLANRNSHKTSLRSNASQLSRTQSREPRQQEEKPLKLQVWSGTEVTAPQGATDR
T10 sequence (Q14432 whole entry): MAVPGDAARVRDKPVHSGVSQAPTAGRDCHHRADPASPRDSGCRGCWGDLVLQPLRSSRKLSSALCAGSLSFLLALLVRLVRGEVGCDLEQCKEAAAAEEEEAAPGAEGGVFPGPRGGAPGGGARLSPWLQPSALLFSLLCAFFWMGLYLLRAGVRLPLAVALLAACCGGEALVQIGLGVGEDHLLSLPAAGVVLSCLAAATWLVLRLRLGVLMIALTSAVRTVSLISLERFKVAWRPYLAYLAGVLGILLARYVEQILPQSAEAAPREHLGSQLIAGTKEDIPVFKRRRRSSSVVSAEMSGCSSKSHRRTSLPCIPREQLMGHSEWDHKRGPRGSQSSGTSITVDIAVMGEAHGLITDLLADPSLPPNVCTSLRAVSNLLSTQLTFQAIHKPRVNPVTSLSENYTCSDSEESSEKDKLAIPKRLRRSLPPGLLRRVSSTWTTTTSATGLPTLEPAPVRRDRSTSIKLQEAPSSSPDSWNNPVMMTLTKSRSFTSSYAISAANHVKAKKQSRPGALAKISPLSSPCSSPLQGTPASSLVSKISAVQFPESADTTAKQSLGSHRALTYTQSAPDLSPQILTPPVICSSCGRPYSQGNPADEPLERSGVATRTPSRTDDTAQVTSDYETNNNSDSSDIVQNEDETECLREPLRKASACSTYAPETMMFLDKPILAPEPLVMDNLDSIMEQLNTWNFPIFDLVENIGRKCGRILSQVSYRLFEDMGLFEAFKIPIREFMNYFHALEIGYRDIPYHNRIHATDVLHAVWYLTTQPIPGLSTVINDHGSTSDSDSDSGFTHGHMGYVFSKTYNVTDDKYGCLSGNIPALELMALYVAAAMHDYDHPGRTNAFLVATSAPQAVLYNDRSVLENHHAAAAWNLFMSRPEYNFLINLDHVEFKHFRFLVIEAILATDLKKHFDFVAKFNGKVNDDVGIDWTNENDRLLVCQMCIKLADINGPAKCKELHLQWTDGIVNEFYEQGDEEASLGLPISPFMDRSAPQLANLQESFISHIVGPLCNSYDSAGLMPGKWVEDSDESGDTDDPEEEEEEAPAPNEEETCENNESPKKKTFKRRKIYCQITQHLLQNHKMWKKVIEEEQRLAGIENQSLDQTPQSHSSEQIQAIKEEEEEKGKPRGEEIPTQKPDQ
T12 sequence (P21397 whole entry): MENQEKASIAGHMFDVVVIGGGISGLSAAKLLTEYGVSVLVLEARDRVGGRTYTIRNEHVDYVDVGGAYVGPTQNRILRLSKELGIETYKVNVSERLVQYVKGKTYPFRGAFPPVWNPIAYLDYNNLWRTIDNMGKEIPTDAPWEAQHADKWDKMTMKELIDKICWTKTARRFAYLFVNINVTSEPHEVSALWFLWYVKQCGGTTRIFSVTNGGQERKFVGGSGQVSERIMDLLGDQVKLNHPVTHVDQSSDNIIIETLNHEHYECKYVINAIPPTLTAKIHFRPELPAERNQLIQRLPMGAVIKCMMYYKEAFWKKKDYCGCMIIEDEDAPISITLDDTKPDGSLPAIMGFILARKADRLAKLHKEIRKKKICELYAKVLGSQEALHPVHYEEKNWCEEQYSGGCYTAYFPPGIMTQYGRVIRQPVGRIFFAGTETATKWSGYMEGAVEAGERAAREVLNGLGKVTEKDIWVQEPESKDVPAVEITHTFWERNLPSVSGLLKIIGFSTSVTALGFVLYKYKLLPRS

CC[C@@H](N)Cc1cc(OC)c(C)cc1OC [(R)-Ariadne]
EC50 [1]: ~5000 nM | Emax [1]: > 70% | EC50 [2, 23]: 249 nM | EC50 [2, 24]: < 1000 nM | Emax [2]: > 70% | agonist activity [3]: Little to no agonist activity | EC50 [4]: ~200 nM | Emax [4]: > 70% | general locomotion in novel environment ([5]; 10 mg/kg, s.c. (peak HTR dose)): minor sedative effect | general locomotion in novel environment ([5]; 30 mg/kg): marked sedation | time in the center of the arena ([5]; open field): trend for spending less time in the center | EC50 [6, 23]: 739 nM | EC50 [6, 24]: < 1000 nM | Emax [6]: > 70%

CCC(N)Cc1cc(OC)c(C)cc1OC (racemic) [Compound 32, 1-(2,5-dimethoxy-4-methylphenyl)butan-2-amine]
% Response [7]: −31% | % Response [8]: 47% | % Response [9]: −5% | EC50 [2, 24]: < 1000 nM | Emax [2]: > 70% | % Response [10]: 21% | % Response [11]: 1% | % Response [12]: −11% | % Response [13]: 22% | EC50 [3]: > 10000 nM | agonist activity [3]: Little to no agonist activity | % Response [14]: −13% | % Response [15]: −31% | % Response [16]: −6% | selectivity of 5-HT2 over 5-HT1E and 5-HT1F receptors ([4]; also 5-HT1F): 0.5-1 log | % Response [17]: 13% | % Response [18]: −4% | % Response ([19]; listed as (rac)-Ariadne): more than 50% | % Response ([19]; listed as Ariadne): 72% | % Response [20]: −3% | EC50 [6, 24]: < 1000 nM | Emax [6]: > 70% | % Response [21]: 36% | % Response [22]: −2%
